Assay [1] deals with human peripheral blood mononuclear cells (PBMC). Kind of assay: IL-6 secretion by human PBMC (ELISA). It counts as cell-based. The settings on record: for IL6: 24 h; for IL-6 secretion (in words): 1, 5, 20 μg/ml. How it is done:
(§1) Peripheral blood from healthy donors (Centre de transfusion, Hôpital Universitaire, Geneva) was centrifuged to get the buffy coat. The buffy coat was mixed with Hanks' balanced saline solution (HBSS, Sigma, Buchs, Switzerland), layered over Ficoll Paque Plus (Amersham Pharmacia) to 1.077 g/mL and centrifuged (2800 rpm, 20° C., 25 min). Cells harvested from the interphase were washed twice in HBSS at 800 rpm for 15 min at room temperature and the pelleted cells were resuspended in HBSS. The cell counts were performed using a Neubauer cell. All cell cultures were performed in RPMI-1640 medium supplemented with penicillin (100 U/mL), streptomycin (100 μg/mL), L-glutamine (2 mmol/L) and 10% fetal calf serum (FCS), all obtained from Sigma. For in vitro stimulation, the cells were cultured at a concentration of 1×10^6 viable cells/well.
(§2) PBMC were incubated at 37° C. and under 5% CO2 atmosphere with the controls (see below) and with the products of the invention at 1, 5, and 20 μg/mL for IL-6, and at 0.2, 2, and 20 μg/mL for TNF-α secretion. Medium: RPMI alone.
(§3) The surpernatants of the cultures were harvested after 24 h and the concentration of IL-6 and TNF-α were measured by an enzyme-linked immunosorbent assay (ELISA) (Human IL-6 and TNF-α ELISA Set, BD OptEIA, San Diego, USA), according to the manufacturer instructions. The detection limits were 10 and 8 pg/mL respectively.
PBMC are incubated at 37° C. and under 5% CO2 atmosphere with the products of the invention.
The supernatants of the cultures are harvested after 24 h and the concentration of IL-6 was measured by an enzyme-linked immunosorbent assay (ELISA) (Human IL-6 ELISA Set, BD OptEIA, San Diego, USA), according to the manufacturer instructions. The detection limit was 10 pg/mL.
For orientation: In an ELISA, binding on a coated surface is turned into a signal by an enzyme label.

The test system is the same in assay [2]. Kind of assay: TNF-α secretion by human PBMC (ELISA). It counts as cell-based. As to conditions: for TNF-α: 24 h; for TNF-α induction (in words): 0.2, 2, 20 μg/ml. How it is done: as §1, §2, §3
In assay [3] the target is T1, TLR2 and CD14 (Homo sapiens, UniProt O60603).
T1 construct: expressed in transfected cells; host or cells: HEK (HEK-TLR2-CD14 cell line)
Kind of assay: HEK-TLR2-CD14 IL-8 secretion. It counts as cell-based. As to conditions: for IL-8 secretion, mean: 24 h; for activation of IL-8 secretion via TLR2 (in words): HEK-TLR2-CD14. The source says: The HEK293 cell line was chosen for its null or low basal expression of the TLR genes. These cells enable efficient monitoring of TLR activity using ELISA analysis such as IL-8 titration or reporter-based systems that monitor TLR-induced NF-κB activation. HEK-TLR2 cells (Invivogen, Toulouse, France) are engineered HEK293 cells stably transfected with multiple genes from the TLR2 pathway that include TLR2 and genes participating in the recognition or involved in the signaling cascade. These cells secrete IL-8 after TLR2 stimulation. The experiments were performed according to manufacturers' instructions. Briefly, 2×10^4 cells/well (200 ul RPMI) are incubated at 37° C. during 3 days (5% CO2). The medium is removed, and 90 ul RPMi+5% FCS is added to the wells Then the agonists and controls are added (10 ul/well). The cells return to the incubator for 24 hours. The supernatants are collected and the IL-8 ELISA is performed according to manufacturer's instructions These preliminary results were confirmed in another cell line expressing concomitantly TLR2 and CD14. The procedure used is similar to the one described just above.

Assay [4] relates to murine macrophages. Kind of assay: Nitric oxide production by murine macrophages (Griess reaction). As to conditions: 22 h. The assay is classed as cell-based, C57/BL6 mice. The source says:
Experimental assay of nitric oxide production by murine macrophages: Six-week old male C57/BL6 mice (six weeks old male, SPF quality, Charles Rivier, FR) were killed by CO2 inhalation. The hip, femur, and tibia from the posterior appendage were removed. The bone marrow was extracted from the lumen by injecting Dulbecco's Modified Eagle Medium (DH) through the bone after cutting both end portions. After washing, the stem cells were resuspended (40'000 cells/mL) in DH medium supplemented with 20% horse serum and 30% L929 cell supernatant. The cell suspension is incubated for 8 days in an incubator at 37° C. under 8% CO2 and moisture-saturated atmosphere. Macrophages are then detached with ice-cold PBS, washed and resuspended in DH medium supplemented with 5% fetal calf serum (FCS), amino acids and antibiotics (DHE medium). The cell density is adjusted to 700′000 cells/mL. Aqueous solutions of the products are serially diluted in DHE medium directly in microtiter plates. The products are tested in triplicates and each microtiter plate comprises a negative control composed of medium. The final volume in each well is […]. 100 μL of the cell suspension are added to the diluted products and the cells are incubated for 22 h in an incubator at 37° C., under 8% CO2 and a moisture-saturated atmosphere. At the end of the incubation period, 100 μL of supernatant are transferred to another microtiter plate and the nitrite concentration produced in each supernatant is determined by running a Griess reaction. 100 μL of Griess reagent (5 mg/mL of sulfanilamide+0.5 mg/mL of N-(1-naphtyl)ethylene-diamine hydrochloride) in 2.5% aqueous phosphoric acid, are added to each well. The microtiter plates are read with a spectrophotometer (SpectraMax Plus, Molecular Devices) at 562 nm against a reference at 690 nm. The nitrite concentration is proportional to nitric oxide content being formed. The nitrite content is determined based on a standard curve. The results are given as mean value±standard deviation and plotted as a dose response curve.
(In general: Nitrite, measured by Griess reagent, commonly stands in for NO production.)

These results are taken from US20100168054A1, “Functionalized Beta 1,6 Glucosamine Disaccharides and Process for Their Preparation” (OM PHARMA, priority 2006, published 2010).

Entries after “also recorded” stand apart in the source; their conditions may differ.

T1 sequence (O60603 21-784): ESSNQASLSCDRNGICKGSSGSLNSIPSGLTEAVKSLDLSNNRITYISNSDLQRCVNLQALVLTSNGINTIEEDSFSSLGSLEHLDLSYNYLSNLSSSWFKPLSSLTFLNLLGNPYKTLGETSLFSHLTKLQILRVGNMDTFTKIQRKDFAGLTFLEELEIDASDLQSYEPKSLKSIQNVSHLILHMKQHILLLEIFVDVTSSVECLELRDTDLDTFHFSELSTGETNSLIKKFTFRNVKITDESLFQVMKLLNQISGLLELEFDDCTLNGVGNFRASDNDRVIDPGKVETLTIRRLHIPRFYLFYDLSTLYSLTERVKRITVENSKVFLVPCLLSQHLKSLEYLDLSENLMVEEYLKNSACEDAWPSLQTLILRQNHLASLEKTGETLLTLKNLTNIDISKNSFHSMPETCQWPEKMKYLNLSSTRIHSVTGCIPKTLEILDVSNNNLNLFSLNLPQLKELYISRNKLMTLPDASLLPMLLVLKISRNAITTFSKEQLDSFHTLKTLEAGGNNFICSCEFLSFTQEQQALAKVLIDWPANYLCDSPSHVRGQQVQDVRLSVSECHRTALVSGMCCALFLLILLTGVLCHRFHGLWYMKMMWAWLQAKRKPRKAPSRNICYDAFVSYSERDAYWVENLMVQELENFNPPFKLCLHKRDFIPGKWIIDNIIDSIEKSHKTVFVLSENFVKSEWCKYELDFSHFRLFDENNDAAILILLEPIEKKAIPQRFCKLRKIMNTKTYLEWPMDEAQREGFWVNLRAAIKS

Take `CCCCCCCCCCCC(=O)O[C@H](CCCCCCCCCCC)CC(=O)N[C@H]1[C@H](OC[C@H]2O[C@H](OCCC)[C@H](NC(=O)C[C@H](O)CCCCCCCCCCC)[C@@H](O)[C@@H]2O)O[C@H](CO)[C@@H](OP(=O)(O)O)[C@@H]1O` [compound 17, Propyl-2-Deoxy-6-O-[2-deoxy-4-O-(dihydroxyphosphoryl)-2-[(R)-3-dodecanoyloxytetradecanoylamino]-β-D-glucopyranosyl]-2-[(R)-3-hydroxytetradecanoylamino]-α-D-glucopyranoside]: the IL6 in assay [1] (1 μg/ml) is 171.6 pg/mL; in assay [1] (5 μg/ml), 447.6 pg/mL; in assay [1] (20 μg/ml) it was 752.4 pg/mL. In addition, the “IL-6 secretion (in words)” value in assay [1] is reported as “able to induce IL-6 secretion”. The TNF-α was found to be 46 pg/mL in assay [2] (0.2 μg/ml), 474 pg/mL in assay [2] (2 μg/ml) and 2114 pg/mL in assay [2] (20 μg/ml). The “TNF-α induction (in words)” value in assay [2] was “induced high levels of TNF-α”. The “IL-8 secretion, mean” value in assay [3] (14 ng/ml) was found to be 0.13 pg/mL; in assay [3] (41 ng/ml), 0.14 pg/mL; in assay [3] (124 ng/ml), 0.20 pg/mL; in assay [3] (370 ng/ml) it was 0.22 pg/mL; in assay [3] (1111 ng/ml), 0.40 pg/mL; in assay [3] (3333 ng/ml), 1.06 pg/mL. In addition, the “IL-8 secretion, mean” value in assay [3] (10000 ng/ml) was determined as 3.59 pg/mL. Besides, in assay [3], the “activation of IL-8 secretion via TLR2 (in words)” value is listed as “able to activate IL-8 secretion via TLR2”. Further, the “nitric oxide production (in words), FIG. 25” value in assay [4] is “able to induce high levels of nitric oxide”.
Take `CCCCCCCCCCCC(=O)O[C@H](CCCCCCCCCCC)CC(=O)NC1C(OCC2OC(OP(=O)(O)O)C(NC(=O)C[C@H](O)CCCCCCCCCCC)C(O)C2O)OC(CO)C(OP(=O)(O)O)C1O` (stereo partly drawn) [compound 1b, 2-Deoxy-6-O-[2-deoxy-4-O-(dihydroxyphosphoryl)-2-[(R)-3-dodecanoyloxytetradecanoylamino]-β-D-glucopyranosyl]-2-[(R)-3-hydroxytetradecanoylamino]-α-D-glucopyranosyl dihydrogenophosphate]: the IL6 in assay [1] (1 μg/ml) was 20.2 pg/mL; in assay [1] (5 μg/ml) it was 57.1 pg/mL; in assay [1] (20 μg/ml) it was 225.5 pg/mL. In assay [1], the “IL-6 secretion (in words)” value is listed as “higher levels of IL-6; also recorded: able to induce IL-6 secretion”. Besides, the values for the TNF-α in assay [2] (0.2 μg/ml), in assay [2] (2 μg/ml) and in assay [2] (20 μg/ml) were 37 pg/mL, 117 pg/mL and 1105 pg/mL, respectively. In assay [2], the “TNF-α induction (in words)” value is recorded as “induced high levels of TNF-α”.
Turning to `CCCCCCCCCCCC(=O)O[C@H](CCCCCCCCCCC)CC(=O)N[C@H]1[C@H](OC[C@H]2O[C@H](OCCOP(=O)(O)O)[C@H](NC(=O)C[C@H](O)CCCCCCCCCCC)[C@@H](O)[C@@H]2O)O[C@H](CO)[C@@H](OP(=O)(O)O)[C@@H]1O` [compound 33, 2-(Phosphonooxy)ethyl-2-Deoxy-6-O-[2-deoxy-4-O-(dihydroxyphosphoryl)-2-[(R)-3-dodecanoyloxytetradecanoylamino]-β-D-glucopyranosyl]-2-[(R)-3-hydroxytetradecanoylamino]-α-D-glucopyranoside], the TNF-α was 8.0 pg/mL in assay [2] (0.2 μg/ml), 8.3 pg/mL in assay [2] (2 μg/ml) and 21 pg/mL in assay [2] (20 μg/ml). Besides, the “IL-8 secretion, mean” value was found to be 0.10 pg/mL in assay [3] (14 ng/ml); 0.03 pg/mL in assay [3] (41 ng/ml); 0.17 pg/mL in assay [3] (124 ng/ml); 0.19 pg/mL in assay [3] (370 ng/ml); 0.52 pg/mL in assay [3] (1111 ng/ml); 1.49 pg/mL in assay [3] (3333 ng/ml). Moreover, the “IL-8 secretion, mean” value in assay [3] (10000 ng/ml) amounted to 4.24 pg/mL. For the same molecule, the “activation of IL-8 secretion via TLR2 (in words)” value in assay [3] is reported as “able to activate IL-8 secretion via TLR2”.
For `CCCCCCCCCCCC(=O)O[C@H](CCCCCCCCCCC)CC(=O)N[C@H]1[C@H](OC[C@H]2O[C@H](O)[C@H](NC(=O)C[C@H](O)CCCCCCCCCCC)[C@@H](O)[C@@H]2O)O[C@H](CO)[C@@H](OP(=O)(O)O)[C@@H]1O` [compound 16, 2-Deoxy-6-O-[2-deoxy-4-O-(dihydroxyphosphoryl)-2-[(R)-3-dodecanoyloxytetradecanoylamino]-β-D-glucopyranosy]-2-[(R)-3-hydroxytetradecanoylamino]-α-D-glucopyranose], the IL6 in assay [1] (1 μg/ml) was determined as 81.1 pg/mL; in assay [1] (5 μg/ml) it was 473.3 pg/mL; in assay [1] (20 μg/ml), 1348.2 pg/mL. Besides, the “IL-6 secretion (in words)” value in assay [1] is on record as “able to induce IL-6 secretion”. Besides, the “IL-6 induced” value in assay [1] (up to, doses to 20 μg/ml) is “up to 1348 μg/ml”. Further, the values for the TNF-α in assay [2] (0.2 μg/ml), in assay [2] (2 μg/ml) and in assay [2] (20 μg/ml) were 0.69 pg/mL, 49 pg/mL and 1705 pg/mL, respectively. The “TNF-α induction (in words)” value in assay [2] was “induced high levels of TNF-α”. Also, the “IL-8 secretion, mean” value in assay [3] (14 ng/ml) stood at 0.03 pg/mL; in assay [3] (41 ng/ml) it was 0.00 pg/mL; in assay [3] (124 ng/ml), 0.03 pg/mL; in assay [3] (370 ng/ml), 0.01 pg/mL; in assay [3] (1111 ng/ml), 0.06 pg/mL; in assay [3] (3333 ng/ml), 0.13 pg/mL. The “IL-8 secretion, mean” value in assay [3] (10000 ng/ml) is 0.22 pg/mL. Also, in assay [4], the “nitric oxide production (in words), FIG. 25” value is given as “able to induce high levels of nitric oxide”.
